US20090221588A1, “FUNGICIDAL COMPOSITIONS” (SYNGENTA CROP PROTECTION, INC., priority 2006, published 2009)

Experiments:
Septoria tritici = test: Action against Septoria tritici: growth inhibition in nutrient broth, microtiter plate, photometric; format: cell-based; details: single active ingredient, 24° C., 72 hrs
Text: (§1) The action to be expected E for a given active ingredient combination obeys the so-called COLBY formula and can be calculated as follows (COLBY, S. R. “Calculating synergistic and antagonistic responses of herbicide combination”. Weeds, Vol. 15, pages 20-22; 1967): ppm=milligrams of active ingredient (=a.i.) per liter of spray mixture X=% action by active ingredient A) using p ppm of active ingredient Y=% action by active ingredient B) using q ppm of active ingredient. According to COLBY, the expected (additive) action of active ingredients A)+B) using p+q ppm of active ingredient is If the action actually observed (O) is greater than the expected action (E), then the action of the combination is super-additive, i.e. there is a synergistic effect. In mathematical terms, synergism corresponds to a positive value for the difference of (O-E). In the case of purely complementary addition of activities (expected activity), said difference (O-E) is zero. A negative value of said difference (O-E) signals a loss of activity compared to the expected activity. In the following examples a specific compound of formula (I) was used. Said compound of formula (I) was a mixture of the racemic syn- and anti-compound of formula (I), in a syn/anti-ratio of 9:1. Conidia of the fungus from cryogenic storage are directly mixed into nutrient broth (PDB potato dextrose broth). After placing a (DMSO) solution of the test compounds into a microtiter plate (96-well format) the nutrient broth containing the fungal spores is added. […] The fungicide interactions in the combinations are calculated according to COLBY method.

[1] = test system: Pseudocercosporella herpotrichoides var. acuformis; test: Action against Pseudocercosporella herpotrichoides var. acuformis (eyespot/cereals): growth inhibition in nutrient broth, microtiter plate, photometric; format: cell-based; details: single active ingredient, 24° C., 72 hrs
Text: as §1

Question: With `O=C(NCCc1ncc(C(F)(F)F)cc1Cl)c1ccccc1C(F)(F)F` [Cpd B-1.1, fluopyram] as the compound, how does the “Observed control in % (% Cobs)” value (Septoria tritici; 0.063 ppm [mg/L] final medium) read?
Answer: The value was 6%.

Question: And the “Observed control in % (% Cobs)” value (Septoria tritici; 0.125 ppm [mg/L] final medium)?
Answer: Its value is 0%.

Question: What about the “Observed control in % (% Cobs)” value ([1]; 0.016 ppm [mg/L] final medium) of the same compound?
Answer: Its value is 1%.

Question: And the “Observed control in % (% Cobs)” value ([1]; 0.031 ppm [mg/L] final medium)?
Answer: Its value is 3%.

Question: And the “Observed control in % (% Cobs)” value ([1]; 0.063 ppm [mg/L] final medium)?
Answer: Its value is 14%.

Question: How did the “Observed control in % (% Cobs)” value (Septoria tritici; 0.063 ppm [mg/L] final medium) turn out when `CC(C)C1C2CCC1c1c(NC(=O)c3cn(C)nc3C(F)F)cccc12` (racemic) [Cpd I, 3-difluoromethyl-1-methyl-1H-pyrazole-4-carboxylic acid (9-isopropyl-1,2,3,4-tetrahydro-1,4-methano-naphthalen-5-yl)-amide] was run?
Answer: Its value is 26%.

Question: And the “Observed control in % (% Cobs)” value (Septoria tritici; 0.125 ppm [mg/L] final medium)?
Answer: The value was 52%.

Question: And the “Observed control in % (% Cobs)” value ([1]; 0.016 ppm [mg/L] final medium)?
Answer: The value was 12%.

Question: What about the “Observed control in % (% Cobs)” value ([1]; 0.031 ppm [mg/L] final medium) of the same compound?
Answer: The value was 40%.

Question: And the “Observed control in % (% Cobs)” value ([1]; 0.063 ppm [mg/L] final medium)?
Answer: Its value is 67%.
